Numbers after ± are expanded uncertainties.
Experiment: xn = mol fraction of the nth substance listed
Details: 323.15 K, Fluid (supercritical or subcritical phases)

## CCCCC [pentane] + O=C=O
2770 kPa, x2 = 0.214
  mass density: 612 ± 4 kg/m3
3730 kPa, x2 = 0.36
  mass density: 633 ± 4 kg/m3
3800 kPa, x2 = 0.214
  mass density: 617 ± 4 kg/m3
4510 kPa, x2 = 0.36
  mass density: 635 ± 4 kg/m3
5380 kPa, x2 = 0.36
  mass density: 636 ± 4 kg/m3
5920 kPa, x2 = 0.214
  mass density: 623 ± 4 kg/m3
6240 kPa, x2 = 0.36
  mass density: 640 ± 4 kg/m3
6870 kPa, x2 = 0.671
  mass density: 707 ± 4 kg/m3
7170 kPa, x2 = 0.36
  mass density: 643 ± 4 kg/m3
7390 kPa, x2 = 0.791
  mass density: 655 ± 4 kg/m3
7500 kPa, x2 = 0.671
  mass density: 713 ± 4 kg/m3
7530 kPa, x2 = 0.214
  mass density: 627 ± 4 kg/m3
7770 kPa, x2 = 0.791
  mass density: 663 ± 4 kg/m3
8020 kPa, x2 = 0.87
  mass density: 577 ± 4 kg/m3
8150 kPa, x2 = 0.36
  mass density: 645 ± 4 kg/m3
8150 kPa, x2 = 0.87
  mass density: 584 ± 4 kg/m3
8220 kPa, x2 = 0.916
  mass density: 454 ± 3 kg/m3
8230 kPa, x2 = 0.916
  mass density: 458 ± 3 kg/m3
8240 kPa, x2 = 0.916
  mass density: 460 ± 3 kg/m3
8240 kPa, x2 = 0.939
  mass density: 352 ± 2 kg/m3
8260 kPa, x2 = 0.87
  mass density: 590 ± 4 kg/m3
8270 kPa, x2 = 0.916
  mass density: 468 ± 3 kg/m3
8270 kPa, x2 = 0.939
  mass density: 356 ± 2 kg/m3
8280 kPa, x2 = 0.791
  mass density: 670 ± 4 kg/m3
8290 kPa, x2 = 0.939
  mass density: 358 ± 2 kg/m3
8310 kPa, x2 = 0.939
  mass density: 361 ± 2 kg/m3
8320 kPa, x2 = 0.916
  mass density: 475 ± 3 kg/m3
8330 kPa, x2 = 0.939
  mass density: 363 ± 2 kg/m3
8370 kPa, x2 = 0.671
  mass density: 719 ± 4 kg/m3
8370 kPa, x2 = 0.916
  mass density: 483 ± 3 kg/m3
8380 kPa, x2 = 0.939
  mass density: 368 ± 2 kg/m3
8390 kPa, x2 = 0.901
  mass density: 515 ± 3 kg/m3
8410 kPa, x2 = 0.916
  mass density: 491 ± 3 kg/m3
8420 kPa, x2 = 0.87
  mass density: 597 ± 4 kg/m3
8420 kPa, x2 = 0.939
  mass density: 375 ± 2 kg/m3
8430 kPa, x2 = 0.901
  mass density: 520 ± 3 kg/m3
8450 kPa, x2 = 0.916
  mass density: 499 ± 3 kg/m3
8460 kPa, x2 = 0.901
  mass density: 524 ± 3 kg/m3
8460 kPa, x2 = 0.939
  mass density: 380 ± 2 kg/m3
8500 kPa, x2 = 0.901
  mass density: 529 ± 3 kg/m3
8500 kPa, x2 = 0.916
  mass density: 508 ± 3 kg/m3
8500 kPa, x2 = 0.939
  mass density: 386 ± 2 kg/m3
8530 kPa, x2 = 0.901
  mass density: 533 ± 3 kg/m3
8540 kPa, x2 = 0.939
  mass density: 393 ± 2 kg/m3
8550 kPa, x2 = 0.87
  mass density: 602 ± 4 kg/m3
8570 kPa, x2 = 0.901
  mass density: 538 ± 3 kg/m3
8570 kPa, x2 = 0.916
  mass density: 517 ± 3 kg/m3
8570 kPa, x2 = 0.939
  mass density: 399 ± 3 kg/m3
8620 kPa, x2 = 0.901
  mass density: 542 ± 3 kg/m3
8620 kPa, x2 = 0.939
  mass density: 406 ± 3 kg/m3
8650 kPa, x2 = 0.916
  mass density: 527 ± 3 kg/m3
8660 kPa, x2 = 0.939
  mass density: 413 ± 3 kg/m3
8670 kPa, x2 = 0.901
  mass density: 548 ± 3 kg/m3
8700 kPa, x2 = 0.939
  mass density: 420 ± 3 kg/m3
8710 kPa, x2 = 0.87
  mass density: 610 ± 4 kg/m3
8710 kPa, x2 = 0.901
  mass density: 552 ± 3 kg/m3
8710 kPa, x2 = 0.916
  mass density: 536 ± 3 kg/m3
8740 kPa, x2 = 0.939
  mass density: 428 ± 3 kg/m3
8760 kPa, x2 = 0.901
  mass density: 558 ± 4 kg/m3
8810 kPa, x2 = 0.916
  mass density: 546 ± 3 kg/m3
8810 kPa, x2 = 0.939
  mass density: 436 ± 3 kg/m3
8830 kPa, x2 = 0.901
  mass density: 562 ± 4 kg/m3
8850 kPa, x2 = 0.939
  mass density: 444 ± 3 kg/m3
8860 kPa, x2 = 0.791
  mass density: 681 ± 4 kg/m3
8890 kPa, x2 = 0.901
  mass density: 568 ± 4 kg/m3
8890 kPa, x2 = 0.939
  mass density: 453 ± 3 kg/m3
8920 kPa, x2 = 0.87
  mass density: 619 ± 4 kg/m3
8930 kPa, x2 = 0.916
  mass density: 556 ± 3 kg/m3
8950 kPa, x2 = 0.939
  mass density: 461 ± 3 kg/m3
8980 kPa, x2 = 0.901
  mass density: 573 ± 4 kg/m3
9010 kPa, x2 = 0.939
  mass density: 470 ± 3 kg/m3
9050 kPa, x2 = 0.901
  mass density: 579 ± 4 kg/m3
9070 kPa, x2 = 0.916
  mass density: 568 ± 4 kg/m3
9070 kPa, x2 = 0.939
  mass density: 479 ± 3 kg/m3
9120 kPa, x2 = 0.87
  mass density: 624 ± 4 kg/m3
9140 kPa, x2 = 0.901
  mass density: 583 ± 4 kg/m3
9140 kPa, x2 = 0.939
  mass density: 489 ± 3 kg/m3
9210 kPa, x2 = 0.939
  mass density: 500 ± 3 kg/m3
9230 kPa, x2 = 0.901
  mass density: 590 ± 4 kg/m3
9240 kPa, x2 = 0.916
  mass density: 579 ± 4 kg/m3
9280 kPa, x2 = 0.36
  mass density: 647 ± 4 kg/m3
9300 kPa, x2 = 0.939
  mass density: 511 ± 3 kg/m3
9350 kPa, x2 = 0.901
  mass density: 595 ± 4 kg/m3
